The values below come from patent US20210290784A1, “POSITRON EMISSION TOMOGRAPHY (PET) RADIOTRACERS FOR IMAGING MACROPHAGE COLONY-STIMULATING FACTOR 1 RECEPTOR (CSF1R) IN NEUROINFLAMMATION” (The Johns Hopkins University, priority 2018, published 2021).

The target in assay [1] is T1, CSF1R (Mus musculus, UniProt P09581).
T1 sequence (P09581 20-977): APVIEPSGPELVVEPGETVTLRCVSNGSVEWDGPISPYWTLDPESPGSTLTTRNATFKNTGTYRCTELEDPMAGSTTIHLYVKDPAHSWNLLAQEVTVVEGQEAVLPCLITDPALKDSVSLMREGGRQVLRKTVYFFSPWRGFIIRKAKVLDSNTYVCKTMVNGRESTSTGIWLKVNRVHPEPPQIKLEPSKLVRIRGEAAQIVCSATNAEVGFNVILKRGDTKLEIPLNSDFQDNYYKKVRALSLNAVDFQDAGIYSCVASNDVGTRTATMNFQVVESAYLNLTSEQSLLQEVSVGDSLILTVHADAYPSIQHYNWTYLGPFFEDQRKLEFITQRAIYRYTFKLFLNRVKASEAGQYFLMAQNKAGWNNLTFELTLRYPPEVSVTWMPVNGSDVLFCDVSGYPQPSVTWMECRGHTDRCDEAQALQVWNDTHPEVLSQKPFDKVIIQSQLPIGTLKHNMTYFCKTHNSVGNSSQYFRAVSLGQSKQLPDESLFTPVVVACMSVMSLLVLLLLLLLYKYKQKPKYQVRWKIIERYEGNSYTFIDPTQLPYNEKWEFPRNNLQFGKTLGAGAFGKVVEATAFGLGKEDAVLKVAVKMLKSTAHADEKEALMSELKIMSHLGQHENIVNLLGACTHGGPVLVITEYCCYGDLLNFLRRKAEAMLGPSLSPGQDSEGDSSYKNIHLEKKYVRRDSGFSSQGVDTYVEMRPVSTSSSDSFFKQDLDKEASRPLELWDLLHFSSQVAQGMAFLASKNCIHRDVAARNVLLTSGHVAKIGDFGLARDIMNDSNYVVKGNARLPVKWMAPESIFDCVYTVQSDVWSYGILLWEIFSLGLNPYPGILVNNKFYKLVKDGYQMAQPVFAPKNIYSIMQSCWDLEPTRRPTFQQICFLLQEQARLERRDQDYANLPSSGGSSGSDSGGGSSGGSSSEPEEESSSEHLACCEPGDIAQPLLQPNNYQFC
Conditions: i.p.-LPS mice, blocker 1 mg/kg i.p., 5 min before radiotracer.

For assay [2], the target named is T2, TSPO (Rattus norvegicus, UniProt P16257).
T2 construct: host or cells: LPS-treated rats (cited study)
To be noted: LPS-treated rats; cited from earlier work.

The target of assay [3] is T3, CSF1R Human RTK Kinase (Homo sapiens, UniProt P07333).
T3 construct: purchased Eurofins
T3 sequence (P07333 20-972): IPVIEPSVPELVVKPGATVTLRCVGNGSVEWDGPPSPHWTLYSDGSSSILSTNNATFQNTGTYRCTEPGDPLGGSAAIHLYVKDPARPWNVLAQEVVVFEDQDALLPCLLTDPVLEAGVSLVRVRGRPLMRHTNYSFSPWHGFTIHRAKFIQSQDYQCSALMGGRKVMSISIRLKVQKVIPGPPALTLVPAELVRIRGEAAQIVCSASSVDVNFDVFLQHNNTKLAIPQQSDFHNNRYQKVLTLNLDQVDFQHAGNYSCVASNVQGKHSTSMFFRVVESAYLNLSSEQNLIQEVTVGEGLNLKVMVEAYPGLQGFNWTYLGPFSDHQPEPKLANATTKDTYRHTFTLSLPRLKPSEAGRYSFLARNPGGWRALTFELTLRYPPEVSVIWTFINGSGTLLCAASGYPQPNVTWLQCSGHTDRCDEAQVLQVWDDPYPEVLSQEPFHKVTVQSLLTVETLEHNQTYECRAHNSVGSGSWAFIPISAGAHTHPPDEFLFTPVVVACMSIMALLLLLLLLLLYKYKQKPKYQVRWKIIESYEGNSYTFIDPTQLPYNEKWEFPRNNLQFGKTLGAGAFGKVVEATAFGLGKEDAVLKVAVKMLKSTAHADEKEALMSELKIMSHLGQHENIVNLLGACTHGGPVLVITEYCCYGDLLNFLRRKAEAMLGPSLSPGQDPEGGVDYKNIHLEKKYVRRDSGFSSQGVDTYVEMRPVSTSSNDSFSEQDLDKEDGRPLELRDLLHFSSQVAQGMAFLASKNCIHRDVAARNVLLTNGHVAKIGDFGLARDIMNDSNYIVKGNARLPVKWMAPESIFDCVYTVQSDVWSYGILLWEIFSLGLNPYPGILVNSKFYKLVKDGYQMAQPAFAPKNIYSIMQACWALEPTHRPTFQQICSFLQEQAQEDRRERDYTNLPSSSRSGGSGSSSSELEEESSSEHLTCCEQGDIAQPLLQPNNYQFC
The assay is described as follows: CSF1R Human RTK Kinase, Enzymatic Radiometric Assay, Eurofins. The class given is biochemical. To be noted: commercial assay.

Assay [4] has as its target CSF1R (Homo sapiens, UniProt P07333). In words: CSF1R competition binding assay, KinomeScan, DiscoverX. Further details: purchased DiscoverX. Conditions: commercial assay.
The subject of assay [5] is microglia. Conditions: chronic treatment of mice; cited from earlier work.

Some results are limits rather than exact numbers.

Sequence of CSF1R (Homo sapiens, UniProt P07333) (P07333 20-972, species assumed): as the sequence (P07333 20-972) above

As to `CN1CCN(c2ccc(NC(=O)c3ccc(C#N)o3)c(N3CCCCC3)c2)CC1` [1a JHU11744, 5-Cyano-N-(4-(4-methylpiperazin-1-yl)-2-(piperidin-1-yl)phenyl)furan-2-carboxamide], the “blocking of [11C]CPPC SUVR uptake by CSF1R inhibitor” value in assay [1] is “significantly decreased the uptake to the control level”. For `CCC(C)N([11CH3])C(=O)c1cc2ccccc2c(-c2ccccc2Cl)n1` (stereo not drawn) [[^11C]PK11195], the BP value in assay [2] is listed as 0.47.

For `CC1CCN(c2cc(N3CCN(CCF)CC3)ccc2NC(=O)c2cc(C#N)c[nH]2)CC1` [1l JHU11764, 4-Cyano-N-(4-(4-(2-fluoroethyl)piperazin-1-yl)-2-(4-methylpiperidin-1-yl)phenyl)-1H-pyrrole-2-carboxamide], in assay [3], half-maximal inhibition (IC50) required 3.14 nM. In assay [4], `CN1CCN(c2ccc(NC(=O)c3coc(C#N)c3)c(N3CCCCC3)c2)CC1` [1h JHU11766, 5-Cyano-N-(4-(4-methylpiperazin-1-yl)-2-(piperidin-1-yl)phenyl)furan-3-carboxamide] had a Kd greater than 1000 nM. Consider `FC(F)(F)c1ccc(CNc2ccc(Cc3c[nH]c4ncc(Cl)cc34)cn2)cn1` [PLX3397, pexidartinib], for which, in assay [5], the depletion of microglia was 90%. Regarding `CN1CCN(c2ccc(NC(=O)c3cc(C#N)co3)c(N3CCCCC3)c2)CC1` [1g JHU11765, 4-Cyano-N-(4-(4-methylpiperazin-1-yl)-2-(piperidin-1-yl)phenyl)furan-2-carboxamide], in assay [4], the Kd is greater than 1000 nM. For `N#Cc1ccc(C(=O)Nc2ccc(N3CCN(CCF)CC3)cc2N2CCCCC2)o1` [1k JHU11763, 5-Cyano-N-(4-(4-(2-fluoroethyl)piperazin-1-yl)-2-(piperidin-1-yl)phenyl)furan-2-carboxamide], 12.9 nM corresponded to half-maximal inhibition in assay [3] (IC50). Further, the Kd in assay [4] was found to be 32 nM. With `CN1CCN(c2ccc(NC(=O)c3cccc(F)n3)c(N3CCCCC3)c2)CC1` [1i JHU11767, 6-Fluoro-N-(4-(4-methylpiperazin-1-yl)-2-(piperidin-1-yl)phenyl)picolinamide], the Kd in assay [4] worked out at 30 nM.
